According to patent US11767310B2, “Nicotinamide RIPK1 inhibitors” (AbbVie Inc., priority 2021, dated 2023):
Like-named read-outs stand apart in the source and are kept apart here.

How the values were obtained:
Experiment in all cases: Kinase binding screen
Settings in all cases: read-out: Percent Control at 100 nM Compound Concentration
[1] = molecular target: TNK2 (Homo sapiens (Human), UniProt Q07912)
[2] = molecular target: GRK3 (Homo sapiens (Human), UniProt P35626)
[3] = molecular target: PIK3CA(M10431) (Homo sapiens (Human), UniProt P42336, M1043I)
Sequence of PIK3CA(M10431) (P42336 whole entry M1043I): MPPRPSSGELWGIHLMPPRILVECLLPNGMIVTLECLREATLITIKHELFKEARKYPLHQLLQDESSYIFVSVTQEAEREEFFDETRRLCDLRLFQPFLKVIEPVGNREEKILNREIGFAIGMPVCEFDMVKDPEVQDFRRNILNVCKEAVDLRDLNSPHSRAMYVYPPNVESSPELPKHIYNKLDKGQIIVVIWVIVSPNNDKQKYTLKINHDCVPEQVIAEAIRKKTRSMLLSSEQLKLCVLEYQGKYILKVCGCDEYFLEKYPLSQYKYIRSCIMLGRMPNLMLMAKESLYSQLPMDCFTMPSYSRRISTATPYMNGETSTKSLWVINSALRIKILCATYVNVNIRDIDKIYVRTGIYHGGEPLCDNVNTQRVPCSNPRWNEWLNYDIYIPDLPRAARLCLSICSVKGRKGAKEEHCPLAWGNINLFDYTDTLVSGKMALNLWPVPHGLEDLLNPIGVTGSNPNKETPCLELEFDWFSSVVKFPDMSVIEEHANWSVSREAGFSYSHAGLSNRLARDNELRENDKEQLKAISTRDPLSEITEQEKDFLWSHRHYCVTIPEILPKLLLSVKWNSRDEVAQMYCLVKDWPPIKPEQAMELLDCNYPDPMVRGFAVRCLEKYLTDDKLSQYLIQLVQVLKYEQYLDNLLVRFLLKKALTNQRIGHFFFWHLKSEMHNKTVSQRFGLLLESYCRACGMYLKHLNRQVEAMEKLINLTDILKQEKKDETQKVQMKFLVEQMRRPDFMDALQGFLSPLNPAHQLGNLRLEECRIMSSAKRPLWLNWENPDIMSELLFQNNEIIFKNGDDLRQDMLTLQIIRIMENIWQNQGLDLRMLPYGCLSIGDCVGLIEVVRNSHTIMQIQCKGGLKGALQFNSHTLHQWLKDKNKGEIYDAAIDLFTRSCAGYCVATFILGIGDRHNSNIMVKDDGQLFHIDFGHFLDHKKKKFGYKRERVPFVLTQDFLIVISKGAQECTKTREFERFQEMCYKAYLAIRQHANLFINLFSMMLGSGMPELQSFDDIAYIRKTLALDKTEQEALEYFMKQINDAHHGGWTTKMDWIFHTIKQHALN

[4] = molecular target: PKNB(M.tuberculosis) (Mycobacterium tuberculosis (strain ATCC 25618 / H37Rv), UniProt P9WI81)
[5] = molecular target: YANK1 (Homo sapiens (Human), UniProt Q8WU08)
Sequence of YANK1 (Q8WU08 whole entry): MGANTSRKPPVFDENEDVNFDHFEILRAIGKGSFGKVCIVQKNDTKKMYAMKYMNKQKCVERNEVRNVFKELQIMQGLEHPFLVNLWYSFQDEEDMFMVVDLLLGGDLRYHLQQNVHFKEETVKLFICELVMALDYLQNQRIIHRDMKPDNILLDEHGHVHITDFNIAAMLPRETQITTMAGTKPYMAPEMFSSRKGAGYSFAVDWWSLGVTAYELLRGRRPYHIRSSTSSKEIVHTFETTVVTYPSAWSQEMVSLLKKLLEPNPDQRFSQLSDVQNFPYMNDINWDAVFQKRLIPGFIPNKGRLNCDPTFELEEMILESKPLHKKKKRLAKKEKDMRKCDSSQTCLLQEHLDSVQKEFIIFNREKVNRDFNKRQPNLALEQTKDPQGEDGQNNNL

[6] = molecular target: MEK3 (Homo sapiens (Human), UniProt P46734)
Sequence of MEK3 (P46734 whole entry): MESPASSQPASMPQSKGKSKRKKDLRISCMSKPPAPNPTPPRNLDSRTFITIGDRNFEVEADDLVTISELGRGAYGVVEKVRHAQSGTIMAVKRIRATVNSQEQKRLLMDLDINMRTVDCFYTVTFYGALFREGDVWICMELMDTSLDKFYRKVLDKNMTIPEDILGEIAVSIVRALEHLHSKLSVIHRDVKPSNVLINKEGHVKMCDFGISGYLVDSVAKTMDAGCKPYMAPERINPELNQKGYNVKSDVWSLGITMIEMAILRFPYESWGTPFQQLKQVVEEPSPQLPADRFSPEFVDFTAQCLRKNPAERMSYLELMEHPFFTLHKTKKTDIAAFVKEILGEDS

[7] = molecular target: CAMK2D (Homo sapiens (Human), UniProt Q13557)
[8] = molecular target: STK35 (Homo sapiens (Human), UniProt Q8TDR2)
[9] = molecular target: WNK2 (Homo sapiens (Human), UniProt Q9Y3S1)
[10] = molecular target: FGR (Homo sapiens (Human), UniProt P09769)
[11] = molecular target: GSK3A (Homo sapiens (Human), UniProt P49840)
[12] = molecular target: FGFR4 (Homo sapiens (Human), UniProt P22455)
[13] = molecular target: DDR2 (Homo sapiens (Human), UniProt Q16832)
[14] = molecular target: MAST1 (Homo sapiens (Human), UniProt Q9Y2H9)
[15] = molecular target: RET(M918T) (Homo sapiens (Human), UniProt P07949, M918T)
[16] = molecular target: TSSK3 (Homo sapiens (Human), UniProt Q96PN8)
Sequence of TSSK3 (Q96PN8 whole entry): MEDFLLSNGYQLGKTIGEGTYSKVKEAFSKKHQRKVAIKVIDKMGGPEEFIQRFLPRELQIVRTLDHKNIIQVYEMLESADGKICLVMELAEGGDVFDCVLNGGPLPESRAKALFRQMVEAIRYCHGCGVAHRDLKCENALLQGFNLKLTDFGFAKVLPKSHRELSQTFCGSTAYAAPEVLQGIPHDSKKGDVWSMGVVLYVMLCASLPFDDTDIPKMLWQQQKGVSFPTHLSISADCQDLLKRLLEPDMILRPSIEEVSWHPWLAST

[17] = molecular target: MKNK1 (Homo sapiens (Human), UniProt Q9BUB5)
Sequence of MKNK1 (Q9BUB5 whole entry): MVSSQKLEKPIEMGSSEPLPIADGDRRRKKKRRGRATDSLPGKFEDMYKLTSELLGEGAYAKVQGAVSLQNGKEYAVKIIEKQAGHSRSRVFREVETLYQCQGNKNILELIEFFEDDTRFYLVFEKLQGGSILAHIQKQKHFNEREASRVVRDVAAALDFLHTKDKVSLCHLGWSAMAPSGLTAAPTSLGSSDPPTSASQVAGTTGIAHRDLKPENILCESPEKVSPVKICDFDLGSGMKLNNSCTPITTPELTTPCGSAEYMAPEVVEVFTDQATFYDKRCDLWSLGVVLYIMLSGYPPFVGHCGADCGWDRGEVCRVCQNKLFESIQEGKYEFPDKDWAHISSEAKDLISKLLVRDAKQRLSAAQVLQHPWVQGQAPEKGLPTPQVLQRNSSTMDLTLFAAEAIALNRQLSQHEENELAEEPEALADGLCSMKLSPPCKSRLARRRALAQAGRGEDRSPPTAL

[18] = molecular target: PIM3 (Homo sapiens (Human), UniProt Q86V86)
[19] = molecular target: CDK4 (Homo sapiens (Human), UniProt P11802)
[20] = molecular target: PKN1 (Homo sapiens (Human), UniProt Q16512)
[21] = molecular target: SLK (Homo sapiens (Human), UniProt Q9H2G2)
Sequence of SLK (Q9H2G2 whole entry): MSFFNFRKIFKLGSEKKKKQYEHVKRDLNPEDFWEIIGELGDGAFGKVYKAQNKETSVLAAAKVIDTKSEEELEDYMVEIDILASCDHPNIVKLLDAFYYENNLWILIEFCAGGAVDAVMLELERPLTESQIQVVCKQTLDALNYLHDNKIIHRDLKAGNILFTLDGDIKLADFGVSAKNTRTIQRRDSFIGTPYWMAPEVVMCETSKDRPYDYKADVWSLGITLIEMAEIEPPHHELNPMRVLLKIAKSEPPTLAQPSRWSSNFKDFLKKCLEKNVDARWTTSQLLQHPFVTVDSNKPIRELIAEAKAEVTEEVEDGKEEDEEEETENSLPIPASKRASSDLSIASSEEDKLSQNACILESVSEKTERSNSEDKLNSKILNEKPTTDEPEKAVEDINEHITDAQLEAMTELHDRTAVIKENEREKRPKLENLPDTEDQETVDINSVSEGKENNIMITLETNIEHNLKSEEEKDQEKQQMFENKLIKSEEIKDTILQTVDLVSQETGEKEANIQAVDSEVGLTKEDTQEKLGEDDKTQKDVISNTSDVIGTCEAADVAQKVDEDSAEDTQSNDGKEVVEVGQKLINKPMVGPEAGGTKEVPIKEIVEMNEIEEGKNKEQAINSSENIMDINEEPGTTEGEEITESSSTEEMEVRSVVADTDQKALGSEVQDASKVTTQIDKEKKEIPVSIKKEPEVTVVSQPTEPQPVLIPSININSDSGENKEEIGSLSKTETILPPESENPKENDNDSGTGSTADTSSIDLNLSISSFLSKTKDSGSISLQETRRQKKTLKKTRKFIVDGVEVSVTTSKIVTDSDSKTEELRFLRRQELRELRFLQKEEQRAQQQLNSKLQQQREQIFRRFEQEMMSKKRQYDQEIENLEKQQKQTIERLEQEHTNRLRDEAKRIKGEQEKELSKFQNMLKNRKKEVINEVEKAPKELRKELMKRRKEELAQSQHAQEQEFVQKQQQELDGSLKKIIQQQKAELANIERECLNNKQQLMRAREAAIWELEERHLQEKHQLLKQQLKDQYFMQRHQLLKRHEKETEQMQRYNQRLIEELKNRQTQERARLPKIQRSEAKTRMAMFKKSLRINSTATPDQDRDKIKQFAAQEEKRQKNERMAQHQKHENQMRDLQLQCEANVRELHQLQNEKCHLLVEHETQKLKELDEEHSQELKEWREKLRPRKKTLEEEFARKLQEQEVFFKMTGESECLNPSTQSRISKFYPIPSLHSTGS

[22] = molecular target: IKK-alpha (Homo sapiens (Human), UniProt O15111)
[23] = molecular target: CASK (Homo sapiens (Human), UniProt O14936)
[24] = molecular target: TYRO3 (Homo sapiens (Human), UniProt Q06418)
[25] = molecular target: RIPK5 (Homo sapiens (Human), UniProt Q6XUX3)
[26] = molecular target: PRKX (Homo sapiens (Human), UniProt P51817)
Sequence of PRKX (P51817 whole entry): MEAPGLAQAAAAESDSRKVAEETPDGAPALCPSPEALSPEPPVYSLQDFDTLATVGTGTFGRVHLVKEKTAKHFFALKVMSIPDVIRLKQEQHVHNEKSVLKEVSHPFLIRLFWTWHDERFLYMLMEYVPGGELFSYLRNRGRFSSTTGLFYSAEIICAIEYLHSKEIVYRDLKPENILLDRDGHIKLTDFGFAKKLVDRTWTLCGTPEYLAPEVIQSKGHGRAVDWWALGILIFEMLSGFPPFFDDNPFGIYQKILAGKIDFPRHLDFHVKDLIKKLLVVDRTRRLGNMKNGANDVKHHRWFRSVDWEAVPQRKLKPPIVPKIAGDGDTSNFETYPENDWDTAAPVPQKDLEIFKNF

[27] = molecular target: FLT3(R834Q) (Homo sapiens (Human), UniProt P36888, R834Q)
[28] = molecular target: FLT3(N841I) (Homo sapiens (Human), UniProt P36888, N841I)
[29] = molecular target: ABL1(M351T)-phosphorylated (Homo sapiens (Human), UniProt P00519, M351T)

Sequence of GRK3 (P35626 whole entry): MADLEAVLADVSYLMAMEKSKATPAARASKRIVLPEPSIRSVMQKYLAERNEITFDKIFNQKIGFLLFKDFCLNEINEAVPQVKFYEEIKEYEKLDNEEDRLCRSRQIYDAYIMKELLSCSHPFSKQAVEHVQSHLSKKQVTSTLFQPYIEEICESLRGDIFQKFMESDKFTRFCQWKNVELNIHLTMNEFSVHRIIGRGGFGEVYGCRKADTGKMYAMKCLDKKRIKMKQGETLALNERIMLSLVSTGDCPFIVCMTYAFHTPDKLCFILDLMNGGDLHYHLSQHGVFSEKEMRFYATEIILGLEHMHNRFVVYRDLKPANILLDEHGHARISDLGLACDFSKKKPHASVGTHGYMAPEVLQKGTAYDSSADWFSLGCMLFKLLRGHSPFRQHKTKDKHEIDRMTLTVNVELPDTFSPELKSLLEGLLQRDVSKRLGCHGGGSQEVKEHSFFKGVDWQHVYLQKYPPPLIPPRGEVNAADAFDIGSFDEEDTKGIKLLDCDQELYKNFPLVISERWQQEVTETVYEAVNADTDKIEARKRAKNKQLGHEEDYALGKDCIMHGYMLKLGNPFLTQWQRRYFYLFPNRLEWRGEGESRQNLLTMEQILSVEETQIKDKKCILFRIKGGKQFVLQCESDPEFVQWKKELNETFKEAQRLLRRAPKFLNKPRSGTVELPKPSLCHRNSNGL

CN(C[C@@H](O)Cc1ccccc1)C(=O)c1cncc(C#Cc2cnn(C(F)F)c2)c1 [Example 2, (S)-5-((1-(difluoromethyl)-1H-pyrazol-4-yl)ethynyl)-N-(2-hydroxy-3-phenylpropyl)-N-methylnicotinamide]
remaining activity at 0.1 µM ([1]; TNK2): 100% | remaining activity at 0.1 µM ([2]; GRK3): 82% | remaining activity at 0.1 µM ([3]; PIK3CA(M10431)): 92% | remaining activity at 0.1 µM [4]: 100% | remaining activity at 0.1 µM ([5]; YANK1): 100% | remaining activity at 0.1 µM ([6]; MEK3): 94% | remaining activity at 0.1 µM ([7]; CAMK2D): 100% | remaining activity at 0.1 µM ([8]; STK35): 99% | remaining activity at 0.1 µM ([9]; WNK2): 100% | remaining activity at 0.1 µM ([10]; FGR): 100% | remaining activity at 0.1 µM ([11]; GSK3A): 100% | remaining activity at 0.1 µM ([12]; FGFR4): 100% | remaining activity at 0.1 µM ([13]; DDR2): 100% | remaining activity at 0.1 µM ([14]; MAST1): 100% | remaining activity at 0.1 µM ([15]; RET(M918T)): 100% | remaining activity at 0.1 µM ([16]; TSSK3): 82% | remaining activity at 0.1 µM ([17]; MKNK1): 96% | remaining activity at 0.1 µM ([18]; PIM3): 100% | remaining activity at 0.1 µM ([19]; CDK4): 100% | remaining activity at 0.1 µM ([20]; PKN1): 91% | remaining activity at 0.1 µM ([21]; SLK): 99% | remaining activity at 0.1 µM ([22]; IKK-alpha): 100% | remaining activity at 0.1 µM ([23]; CASK): 99% | remaining activity at 0.1 µM ([24]; TYRO3): 99% | remaining activity at 0.1 µM ([25]; RIPK5): 100% | remaining activity at 0.1 µM ([26]; PRKX): 100% | remaining activity at 0.1 µM ([27]; FLT3(R834Q)): 100% | remaining activity at 0.1 µM ([28]; FLT3(N841I)): 99% | remaining activity at 0.1 µM ([29]; ABL1(M351T)-phosphorylated): 86%

CN(C[C@H](Cc1ccccc1)OP(=O)(O)O)C(=O)c1cncc(C#Cc2cnn(C(F)F)c2)c1 [Example 19, (S)-1-(5-((1-(difluoromethyl)-1H-pyrazol-4-yl)ethynyl)-N-methylnicotinamido)-3-phenylpropan-2-yl dihydrogen phosphate]
remaining activity at 0.1 µM [1]: 100% | remaining activity at 0.1 µM [2]: 81% | remaining activity at 0.1 µM [3]: 85% | remaining activity at 0.1 µM [4]: 100% | remaining activity at 0.1 µM [5]: 100% | remaining activity at 0.1 µM [6]: 79% | remaining activity at 0.1 µM [7]: 100% | remaining activity at 0.1 µM [8]: 100% | remaining activity at 0.1 µM [9]: 100% | remaining activity at 0.1 µM [10]: 99% | remaining activity at 0.1 µM [11]: 100% | remaining activity at 0.1 µM [12]: 100% | remaining activity at 0.1 µM [13]: 100% | remaining activity at 0.1 µM [14]: 97% | remaining activity at 0.1 µM [15]: 100% | remaining activity at 0.1 µM [16]: 100% | remaining activity at 0.1 µM [17]: 91% | remaining activity at 0.1 µM [18]: 100% | remaining activity at 0.1 µM [19]: 93% | remaining activity at 0.1 µM [20]: 100% | remaining activity at 0.1 µM [21]: 97% | remaining activity at 0.1 µM [22]: 99% | remaining activity at 0.1 µM [23]: 94% | remaining activity at 0.1 µM [24]: 100% | remaining activity at 0.1 µM [25]: 96% | remaining activity at 0.1 µM [26]: 100% | remaining activity at 0.1 µM [27]: 100% | remaining activity at 0.1 µM [28]: 96% | remaining activity at 0.1 µM [29]: 97%
